Measured values as given in US20230331601A1, “METHOD FOR WATER PURIFICATION AND SANITIZATION” (YISSUM RESEARCH DEVELOPMENT COMPANY OF THE HEBREW …, priority 2020, published 2023).

Tests used:
Format in all cases: physicochemical
[1] = Degradation of carbamazepine by sodium hydroxide and hydrogen peroxide with phase transfer catalyst and added oxygen (LC-MS)
Description: A 50 ml round bottom flask equipped with a magnetic stirrer was charged with 10 ml of water polluted with 1-100 ppm of carbamazepine (concentrations of 1, 10 and 100 ppm were examined). Sodium hydroxide (0.5 g) was rapidly added followed by addition of 0.02 ml of a phase transfer catalyst (Aliquat 336) Next, 1 ml of aqueous hydrogen peroxide (30% solution) was introduced over 5 minutes. After the addition of hydrogen peroxide, the mixture was held under stirring and pure oxygen was bubbled to the system at a flow rate of 0.5 ml/min over 10 minutes. For each experiment, at the end of the process the final reaction mixture was extracted with 5 ml of Acetone: hexane solution (1:1) and carbamazepine remnant concentration was measured by LC-MS, QTOF 6520, manufactured by Agilent.

[2] = Decolorization of Rhodamine B solution monitored with UV-Vis spectroscopy; conditions: 125 ppm RhB solution (Example 2 conditions)
From the text: UV-Vis spectroscopy: 1800 UV spectrophotometer, Shimadzu, Japan.
Rhodamine B (RhB) is a water-soluble chemical dye which is commonly used as a benchmark to assess the potency of oxidants to decompose organic pollutants in aqueous solution and measure the rate of degradation. De-colorization of RhB solution, that is, the disappearance of the characteristic intense pink color, is readily visible as the decomposition of the dye advances under the action of the tested oxidant and the oxidation reaction can be monitored with UV-Vis spectroscopy. […] Decolorization of 1000 ppm and 125 ppm RhB solutions was completed within eleven minutes and two minutes, respectively, i.e., well before the end of the experiments.

[3] = Degradation of xylene by sodium hydroxide and hydrogen peroxide with Aliquat 336, with and without added oxygen (GC-FID)
Description: Experiment A: In the reference experiment, a 50 ml round bottom flask equipped with a magnetic stirrer was charged with 10 ml of water polluted with 100 ppm of xylene. Sodium hydroxide (0.5 g) was rapidly added followed by addition of 0.02 ml of a phase transfer catalyst (Aliquat 336) Next, 1 ml of aqueous hydrogen peroxide (30% solution) was introduced over 5 minutes. After the addition of hydrogen peroxide solution has been completed, the mixture was held under stirring for ten minutes.
Experiment B: To assess the effect of added oxygen, the procedure set forth above was repeated but after the addition of hydrogen peroxide, pure oxygen was bubbled to the system at a flow rate of 1 ml/min over 30 minutes. Upon completion of O2 addition, the mixture was stirred for ten minutes.
For each experiment, samples (0.5 ml) were taken from the reaction mixture at intervals of one minute during the ten minutes hold time and the concentration of remnant xylene was measured by GC-FID. The final reaction mixture was extracted with dichloromethane (10 ml) and analyzed by GC-FID as previously described.

## NC(=O)N1c2ccccc2C=Cc2ccccc21 [carbamazepine]
[1]; 1 ppm carbamazepine in water
  conversion rate: ~ 70%
[1]; 10 ppm carbamazepine in water
  conversion: > 90%
[1]; 100 ppm carbamazepine in water
  conversion: > 90%
[1]; low pollution level of 1 to 10 ppm
  removal rates: 70 to 90%

## CCN(CC)c1ccc2c(-c3ccccc3C(=O)O)c3ccc(=[N+](CC)CC)cc-3oc2c1.[Cl-] [Rhodamine B]
[2]
  Time to complete decolorization: two

## Xylene
[3]; Experiment A: 100 ppm xylene, absence of added oxygen
  Hold time to reach complete oxidation of the pollutant: ten
[3]; Experiment B: 100 ppm xylene, with added oxygen 1 ml/min over 30 minutes
  Hold time to reach complete oxidation of the pollutant: about six
